Experiments:
allo-HSCT mice = conditions: cited from earlier work
steroid-refractory GVHD = conditions: human, in vivo
Description: The inventors examined patient antibiotic treatment histories during the period from allo-HSCT to the onset of aGI-GVHD and looked for associations between treatment with various antibiotic classes and steroid response for GVHD (FIG. 3A). In our institution, quinolone, cephalosporine, carbapenem and intravenous vancomycin were frequently used in our cohort (FIG. 3B).
A total of 37 aGI-GVHD patients who underwent allo-HSCT during 2017 to 2019 at MD Anderson Cancer Center provided stool samples for the biorepository, and these patient stool samples were analyzed retrospectively as a discovery cohort. Acute GVHD was diagnosed by clinical and/or pathological findings and graded according to standard criteria^40. […] The inventors determined treatment response as previously reported^19: briefly, a lack of response on the basis of organ assessment after at least 3 days of high-dose systemic glucocorticoid therapy; a lack of improvement after 7 days; or treatment failure during steroid tapering or an inability to taper the dose to <0.5 mg/kg/day of methylprednisolone. […] As another cohort, a total of 16 aGI-GVHD patients who underwent allo-HSCT during 2017 to 2020 at MD Anderson Cancer Center provided stool samples collected on day 14 after allo-HSCT for the biorepository, and these patient stool samples were analyzed retrospectively. […]

Q: Which “Colonic GVHD severity” value (allo-HSCT mice; allo-HSCT mice treated with meropenem in drinking water compared to mice not treated) does the source give for `C[C@@H](O)[C@H]1C(=O)N2C(C(=O)O)=C(S[C@@H]3CN[C@H](C(=O)N(C)C)C3)[C@H](C)[C@H]12` [meropenem] here?
A: Its value is “aggravated colonic GVHD”.

Q: Which GVHD severity (allo-HSCT mice; supplementation in meropenem-treated allogeneic mice) does the source give for `O=C[C@H](O)[C@@H](O)[C@H](O)CO` [xylose] here?
A: Its GVHD severity is “ameliorates GVHD severity”.

Q: With `CCCCCCCCCC(=O)N[C@@H](Cc1c[nH]c2ccccc12)C(=O)N[C@H](CC(N)=O)C(=O)N[C@@H](CC(=O)O)C(=O)N[C@@H]1C(=O)NCC(=O)N[C@@H](CCCN)C(=O)N[C@@H](CC(=O)O)C(=O)N[C@H](C)C(=O)N[C@@H](CC(=O)O)C(=O)NCC(=O)N[C@H](CO)C(=O)N[C@@H]([C@H](C)CC(=O)O)C(=O)N[C@@H](CC(=O)c2ccccc2N)C(=O)O[C@@H]1C` [daptomycin] as the compound, how does the “Association of antibiotic exposure with steroid-refractory GVHD” value (steroid-refractory GVHD) read?
A: Its value is “significantly associated with steroid-refractory GVHD”.
